Results taken from patent publication US20060235076A1, “Medicinal composition for treating infection with drug-resistant staphylococcus aureus” (priority 2003, published 2006).
≈ marks a conversion by molar mass, not a printed value. Where two headings read alike, the source gives them in different places.

Experiments:
Format in all cases: cell-based, Staphylococcus aureus
[1] = system: MRSA COL and MRSA Strain No. 5; assay: Potentiating effect of various gallates for antibacterial activity of oxacillin (MIC by broth microdilution method and FIC); conditions: for FIC value: combination with oxacillin
Description: According to the broth microdilution method defined by Japan Society of Chemotherapy, MIC was determined. CAMHA was prepared by adding 50 mg/l of Ca-ion, 25 mg/l of Mg-ion, and 2% of NaCl to MHB (Mueller-Hinton Broth), and it was used as a medium for use in the measurement of sensitivity. In 96-well microplates 100 μl of the medium for use in the measurement of sensitivity containing drugs was dispensed. The bacterial liquid was incubated at 37° C. overnight, diluted with saline and added to the plate so that the final concentration of the bacteria was 5×10^5 CFU/well. […] FIC (fractional inhibitory concentration) was calculated from the result and the potency of the effect of the combination use was evaluated.

MRSA and MSSA [2] = assay: Antibacterial activity of gallic acid, various gallates and multivalent phenol derivatives alone (agar plate dilution method, MIC); conditions: Staphylococcus aureus; for MIC: read-out: MIC alone
Description: (§1) According to the agar plate dilution method defined by Japan Society of Chemotherapy, MIC (Minimum inhibitory concentration) was determined. CAMHA was prepared by adding 50 mg/l of Ca-ion, 25 mg/l of Mg-ion, and 2% of NaCl to Mueller-Hinton II Agar (MHA), and it was used as a medium for use in the measurement of sensitivity. The bacterial liquid was incubated at 37° C. overnight and diluted to 10^6 CFU/ml with saline.
MIC for gallic acid, various gallates and multivalent phenol derivatives alone with MRSA and MSSA were determined as described in experiment 2.

MRSA = assay: Potentiating effect of galloyl quinic acid derivatives for the antibacterial activity of oxacillin (agar plate dilution method, MIC); conditions: Staphylococcus aureus, read-out: Oxacillin MIC
Outline: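 MIC by agar plate dilution (Japan Society of Chemotherapy) on Mueller-Hinton II agar with 50 mg/l Ca, 25 mg/l Mg and 2% NaCl, inoculum diluted to 10^6 CFU/ml; tara-derived galloyl quinic acids tested combined with oxacillin.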

MRSA and MSSA [3] = assay: Enhancing activity for the antibacterial activity of oxacillin by various gallates (agar plate dilution method, oxacillin MIC); conditions: Staphylococcus aureus, oxacillin alone
Description: as §1

Which results are given for `CCCCCCCCOC(=O)c1cc(O)c(O)c(O)c1` [Octyl gallate, n-octyl gallate]?
antibacterial activity when used alone ([1]; COL Strain and Strain No. 5): most potent; FIC value ([1]; MRSA COL): 0.252; FIC value ([1]; MRSA Strain No. 5): 0.75; MIC50 (MRSA and MSSA [2]): 31.3 µg/mL (≈ 111 µM); MIC (MRSA and MSSA [2]; ATCC 6538 / MRSA / MSSA): 31.3 µg/mL (≈ 111 µM); MIC (MRSA and MSSA [2]; COL): 31.3 µg/mL (≈ 111 µM); MIC (MRSA and MSSA [2]; MRSA #1): 31.3 µg/mL (≈ 111 µM); MIC (MRSA and MSSA [2]; MRSA #2): 31.3 µg/mL (≈ 111 µM); MIC (MRSA and MSSA [2]; MRSA #3): 31.3 µg/mL (≈ 111 µM); MIC (MRSA and MSSA [2]; MRSA #4): 31.3 µg/mL (≈ 111 µM); MIC (MRSA and MSSA [2]; MRSA #5): 31.3 µg/mL (≈ 111 µM); MIC (MRSA and MSSA [2]; MRSA #6): 31.3 µg/mL (≈ 111 µM); MIC (MRSA and MSSA [2]; MRSA #7): 31.3 µg/mL (≈ 111 µM); MIC (MRSA and MSSA [2]; MRSA #8): 31.3 µg/mL (≈ 111 µM); MIC (MRSA and MSSA [2]; MRSA #9): 31.3 µg/mL (≈ 111 µM); MIC (MRSA and MSSA [2]; MRSA #10): 15.6 µg/mL (≈ 55.3 µM); MIC (MRSA and MSSA [2]; MRSA #12): 31.3 µg/mL (≈ 111 µM); MIC (MRSA and MSSA [2]; MRSA #16): 31.3 µg/mL (≈ 111 µM); MIC (MRSA and MSSA [2]; MRSA #17): 31.3 µg/mL (≈ 111 µM); MIC (MRSA and MSSA [2]; MRSA #18): 31.3 µg/mL (≈ 111 µM); MIC (MRSA and MSSA [2]; MRSA #20): 31.3 µg/mL (≈ 111 µM); MIC (MRSA and MSSA [2]; MRSA #21): 31.3 µg/mL (≈ 111 µM); MIC (MRSA and MSSA [2]; MRSA #22): 31.3 µg/mL (≈ 111 µM); MIC (MRSA and MSSA [2]; MRSA #24): 31.3 µg/mL (≈ 111 µM); MIC (MRSA and MSSA [2]; MSSA #1003): 31.3 µg/mL (≈ 111 µM); MIC (MRSA and MSSA [2]; MSSA #1010): 31.3 µg/mL (≈ 111 µM); MIC (MRSA and MSSA [2]; MSSA #1020): 31.3 µg/mL (≈ 111 µM); MIC (MRSA and MSSA [2]; MSSA #1023): 31.3 µg/mL (≈ 111 µM); MIC (MRSA and MSSA [2]; MSSA #1029): 31.3 µg/mL (≈ 111 µM); MIC (MRSA and MSSA [2]; MSSA #1032): 31.3 µg/mL (≈ 111 µM)

What does the source list for `Cc1onc(-c2ccccc2)c1C(=O)N[C@@H]1C(=O)N2[C@@H]1SC(C)(C)[C@@H]2C(=O)O` [Oxacillin, oxacillin]?
MIC (MRSA; ATCC 6538 / MRSA, ATCC 6538, oxacillin alone (—)): 0.063 µg/mL; MIC (MRSA; MRSA / MSSA, MSSA 1003, oxacillin alone (—)): 0.25 µg/mL; MIC (MRSA; MRSA / MSSA, MSSA 1010, oxacillin alone (—)): 0.25 µg/mL; MIC (MRSA; MRSA / MSSA, MSSA 1032, oxacillin alone (—)): 0.13 µg/mL; MIC (MRSA; MRSA, MRSA 1, oxacillin alone (—)): > 256 µg/mL; MIC (MRSA; MRSA, MRSA 2, oxacillin alone (—)): 256 µg/mL; MIC (MRSA; MRSA, MRSA 3, oxacillin alone (—)): 128 µg/mL; MIC (MRSA; MRSA, MRSA 4, oxacillin alone (—)): 256 µg/mL; MIC (MRSA; MRSA, MRSA 5, oxacillin alone (—)): 256 µg/mL; MIC (MRSA; MRSA, MRSA 6, oxacillin alone (—)): > 256 µg/mL; MIC (MRSA; MRSA, MRSA 7, oxacillin alone (—)): > 256 µg/mL; MIC (MRSA; MRSA, MRSA 8, oxacillin alone (—)): 128 µg/mL; MIC (MRSA; MRSA, MRSA 9, oxacillin alone (—)): 256 µg/mL; MIC (MRSA; MRSA, MRSA 10, oxacillin alone (—)): 128 µg/mL; MIC (MRSA; MRSA, MRSA 12, oxacillin alone (—)): > 256 µg/mL; MIC (MRSA; MRSA, MRSA 16, oxacillin alone (—)): 256 µg/mL; MIC (MRSA; MRSA, MRSA 17, oxacillin alone (—)): 256 µg/mL; MIC (MRSA; MRSA, MRSA 18, oxacillin alone (—)): > 256 µg/mL; MIC (MRSA; MRSA, MRSA 20, oxacillin alone (—)): 64 µg/mL; MIC (MRSA; MRSA, MRSA 21, oxacillin alone (—)): 64 µg/mL; MIC (MRSA; MRSA, MRSA 22, oxacillin alone (—)): 32 µg/mL; MIC (MRSA; MRSA, MRSA COL, oxacillin alone (—)): 256 µg/mL; MIC (MRSA; MRSA): 0.13 µg/mL; MIC (MRSA and MSSA [3]; ATCC 6538 / MRSA / MSSA, ATCC 6538): 0.063 µg/mL; MIC (MRSA and MSSA [3]; MRSA 1): > 256 µg/mL; MIC (MRSA and MSSA [3]; MRSA 2): 256 µg/mL; MIC (MRSA and MSSA [3]; MRSA 3): 128 µg/mL; MIC (MRSA and MSSA [3]; MRSA 4): 256 µg/mL; MIC (MRSA and MSSA [3]; MRSA 5): 256 µg/mL; MIC (MRSA and MSSA [3]; MRSA 6): > 256 µg/mL; MIC (MRSA and MSSA [3]; MRSA 7): > 256 µg/mL; MIC (MRSA and MSSA [3]; MRSA 8): 128 µg/mL; MIC (MRSA and MSSA [3]; MRSA 9): 256 µg/mL; MIC (MRSA and MSSA [3]; MRSA 10): 128 µg/mL; MIC (MRSA and MSSA [3]; MRSA 12): > 256 µg/mL; MIC (MRSA and MSSA [3]; MRSA 16): 256 µg/mL; MIC (MRSA and MSSA [3]; MRSA 17): 256 µg/mL; MIC (MRSA and MSSA [3]; MRSA 18): > 256 µg/mL; MIC (MRSA and MSSA [3]; MRSA 20): 64 µg/mL; MIC (MRSA and MSSA [3]; MRSA 21): 64 µg/mL; MIC (MRSA and MSSA [3]; MRSA 22): 32 µg/mL; MIC (MRSA and MSSA [3]; MRSA 24): < 0.5 µg/mL; MIC (MRSA and MSSA [3]; MRSA COL): 256 µg/mL; MIC (MRSA and MSSA [3]; MSSA 1003): 0.25 µg/mL; MIC (MRSA and MSSA [3]; MSSA 1010): 0.25 µg/mL; MIC (MRSA and MSSA [3]; MSSA 1020): 1 µg/mL; MIC (MRSA and MSSA [3]; MSSA 1023): 2 µg/mL; MIC (MRSA and MSSA [3]; MSSA 1029): 4 µg/mL; MIC (MRSA and MSSA [3]; MSSA 1032): 0.13 µg/mL
